Assay results: US20090076029A1 (Palatin Technologies, Inc., priority 2007, published 2009)
Where two headings read alike, the source gives them in different places.

Experiments:
hMC4-R [1] = target: T1, hMC4-R; experiment: Competitive inhibition assay using [I125]-NDP-α-MSH, hMC4-R membranes; type: binding, human; details: for attenuation of binding of α-MSH and AgRP to MC4-R: both ligands (NDP-α-MSH and AgRP), summary
T1 construct: expressed in transfected cells; host or cells: HEK-293

hMC4-R [2] = tested on: T1, hMC4-R; experiment: cAMP functional assay in HEK-293 cells expressing MC4-R (agonist, neutral antagonist/Schild); type: cell-based, human; details: for intrinsic activity at MC4-R: NDP-α-MSH maximal stimulation = 1.0; for functional status at MC4-R: mostly at 1 μM
Method in brief: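 Cells in EBSS/HEPES pH 7.5 with 0.3 mM IBMX, exposed to compound (0.05-5000 nM, 1% DMSO) for 1 h at 37 °C; cAMP by EIA, EC50 by nonlinear regression. Antagonism: 30 min compound pre-incubation, then 1 nM NDP-α-MSH for 1 h; Schild analysis over 0.005-5000 nM agonist gives pA2.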

MC1-R [3] = tested on: T2, MC1-R; experiment: cAMP functional assay, B-16 mouse melanoma cells expressing MC1-R; type: cell-based; details: cAMP assay at 1 μM
T2 construct: from B-16 mouse melanoma cells (containing MC1-R); endogenous in cells; host or cells: B-16 mouse melanoma cells
Description: (§1) General method for EC50 determination in functional activity assay. Functional evaluation of compounds at melanocortin receptors was performed by measuring the accumulation of intracellular cAMP in HEK-293 cells expressing hMC3-R, hMC4-R or hMC5-R, and in B-16 mouse melanoma cells expressing MC1-R. Cells suspended in Earle's Balanced Salt Solution containing 10 mM HEPES (pH 7.5), 5 mM MgCl2, 1 mM glutamine, 0.1% albumin and 0.6 mM 3-isobutyl-1-methyl-xanthine, a phosphodiesterase inhibitor, were plated in 96 well plates at a density of 0.5×10^5 cells per well. Cells were incubated with the test compounds in the presence or absence of α-MSH for 1 hour at 37° C. cAMP levels in the cell lysates were measured using an EIA kit (Amersham). Data analysis and EC50 values were determined using nonlinear regression analysis with Prism Graph-Pad software.
(§2) Functional status. The agonist/antagonist status with respect to MC1-R, MC-3R, MC4-R and MC5-R of certain compounds of the invention was determined.

hMC5-R [4] = tested on: T3, hMC5-R; experiment: cAMP functional assay, HEK-293 cells expressing hMC5-R; type: cell-based, human; details: cAMP assay at 1 μM
T3 construct: expressed in transfected cells; host or cells: HEK-293
Description: as §1, §2

hMC5-R [5] = target: T3, hMC5-R; experiment: Competitive inhibition assay using [I125]-NDP-α-MSH, hMC5-R membranes; type: binding, human; details: for Ki: read-out: Ki (nM) (NDP-α-MSH) MC5-R
Method in brief: (§3)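 Membranes from HEK-293 cells expressing hMC3-R, hMC4-R or hMC5-R, or from mouse B-16 melanoma cells (MC1-R), with 0.2–0.4 nM [125I]-NDP-α-MSH in 50 mM HEPES pH 7.2 with Mg2+, Ca2+, K+. Test compound typically 1 μM; 90 min, room temperature; filtration, gamma counting. Percent inhibition vs specific binding (1 μM α-MSH), triplicate mean, negatives as 0%.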

hMC4-R [6] = tested on: T1, hMC4-R; type: binding, human; details: for Inhibition at 1 μM (AgRP) MC4-R: 1 μM compound
Method in brief: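 Membranes from hMC4-R-expressing cells incubated 1 h at 37 °C with 0.2 nM [I^125]-AgRP (83-132) and increasing compound in 25 mM HEPES pH 7.5, 100 mM NaCl, 2 mM CaCl2, 2 mM MgCl2, 0.3 mM 1,10-phenanthroline, 0.5% BSA. Filtration, gamma counting; specific binding kept ≤10% of added counts.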

hMC3-R [7] = target: T4, hMC3-R; experiment: Competitive inhibition assay using [I125]-NDP-α-MSH, hMC3-R membranes; type: binding, human; details: for Ki: read-out: Ki (nM) (NDP-α-MSH) MC3-R
T4 construct: expressed in transfected cells; host or cells: HEK-293
Method in brief: as §3

MC1-R [8] = target: T5, MC1-R; experiment: Competitive inhibition assay using [I125]-NDP-α-MSH, MC1-R membranes; type: binding, mouse; details: for Inhibition at 1 μM (NDP-α-MSH) MC1-R: 1 μM compound
T5 construct: other: 1 μM compound

hMC3-R [9] = tested on: T4, hMC3-R; experiment: cAMP functional assay, HEK-293 cells expressing hMC3-R; type: cell-based, human; details: cAMP assay at 1 μM
Description: as §1, §2

[10] = MC4-R membranes, Table 1, read-out: Ki (nM) I125-NPD-α-MSH
[11] = read-out: Ki (nM) (NDP-α-MSH) MC4-R
[12] = cAMP assay, read-out: EC50 (nM) at MC4-R
[13] = MC4-R membranes, Table 1, read-out: Ki (nM) I125-AgRP

Cc1ccc(CCN2C[C@H](CCCNC(=N)N)N(C(=O)[C@H](N)Cc3ccc4ccccc4c3)C[C@H]2C)cc1 [Example 5, N-{3-[1-(2(R)-Amino-3-naphthalen-2-yl-propionyl)-5(R)-methyl-4-(2-p-tolyl-ethyl)-piperazin-2(S)-yl]-propyl}-guanidine]
Ki (hMC4-R [1]; [10]): 29 nM | attenuation of binding of α-MSH and AgRP to MC4-R (hMC4-R [1]): attenuate the binding of both α-MSH and AgRP to MC4-R | Ki (hMC4-R [1]; [11]): 29 nM | functional status (pAg, Ag, Antag, Inactive) (hMC4-R [2]; MC4-R, Table 1): pAg (“pAg” means partial agonist) | EC50 (hMC4-R [2]; MC4-R, Table 1, read-out: EC50): 370 nM | intrinsic activity at MC4-R (hMC4-R [2]): 0.6 | EC50 (hMC4-R [2]; [12]): 370 nM | functional status at MC1-R (MC1-R [3]): partial agonist (intrinsic activity between 0.1 (10%) and 0.7 (70%) is classified as a partial agonist) | functional status at MC5-R (hMC5-R [4]): partial agonist (intrinsic activity between 0.1 (10%) and 0.7 (70%) is classified as a partial agonist) | Ki (hMC5-R [5]): 448 nM | Inhibition at 1 μM (AgRP) MC4-R (hMC4-R [6]): 93% | Ki (hMC4-R [6]; [13]): 42 nM | Ki (hMC4-R [6]; read-out: Ki (nM) (AgRP) MC4-R): 42 nM | Ki (hMC3-R [7]): 164 nM | Ki (MC1-R [8]): 135 nM | Inhibition at 1 μM (NDP-α-MSH) MC1-R (MC1-R [8]): 32% | functional status at MC3-R (hMC3-R [9]): no intrinsic activity (intrinsic activity below 0.1 (10%) is classified as inactive or having no intrinsic activity)

Cc1[nH]c2ccccc2c1CCN1C[C@H](CCCNC(=N)N)N(C(=O)[C@H](N)Cc2ccc3ccccc3c2)C[C@H]1C [Example 9, N-(3-{1-(2(R)-Amino-3-naphthalen-2-yl-propionyl)-5(R)-methyl-4-[2-(2-methyl-1H-indol-3-yl)-ethyl]-piperazin-2(S)-yl}-propyl)-guanidine]
Ki (hMC4-R [1]; [10]): 26 nM | attenuation of binding of α-MSH and AgRP to MC4-R (hMC4-R [1]): attenuate the binding of both α-MSH and AgRP to MC4-R | Ki (hMC4-R [1]; [11]): 26 nM | functional status (pAg, Ag, Antag, Inactive) (hMC4-R [2]; MC4-R, Table 1): Ag | EC50 (hMC4-R [2]; MC4-R, Table 1, read-out: EC50): 384 nM | intrinsic activity at MC4-R (hMC4-R [2]): 0.9 | functional status at MC4-R (hMC4-R [2]; cAMP assay): agonist (intrinsic activity of 0.7 (70%) or higher is classified as an agonist) | EC50 (hMC4-R [2]; [12]): > 384 nM | functional status at MC1-R (MC1-R [3]): partial agonist (intrinsic activity between 0.1 (10%) and 0.7 (70%) is classified as a partial agonist) | functional status at MC5-R (hMC5-R [4]): agonist (intrinsic activity of 0.7 (70%) or higher is classified as an agonist) | Ki (hMC5-R [5]): 293 nM | Inhibition at 1 μM (AgRP) MC4-R (hMC4-R [6]): 92% | Ki (hMC4-R [6]; [13]): 35 nM | Ki (hMC4-R [6]; read-out: Ki (nM) (AgRP) MC4-R): 35 nM | Ki (hMC3-R [7]): 451 nM | Ki (MC1-R [8]): 148 nM | Inhibition at 1 μM (NDP-α-MSH) MC1-R (MC1-R [8]): 73% | functional status at MC3-R (hMC3-R [9]): no intrinsic activity (intrinsic activity below 0.1 (10%) is classified as inactive or having no intrinsic activity)

C[C@@H]1CN(C(=O)[C@H](N)Cc2ccc3ccccc3c2)[C@@H](CCCNC(=N)N)CN1CCc1c[nH]c2ccccc12 [Example 8, N-(3-{1-(2(R)-Amino-3-naphthalen-2-yl-propionyl)-4-[2-(1H-indol-3-yl)-ethyl]-5(R)-methyl-piperazin-2(S)-yl}-propyl)-guanidine]
Inhibition at 1 μM (NDP-α-MSH) MC4-R (hMC4-R [1]; 1 μM compound): 93% | Ki (hMC4-R [1]; [10]): 37 nM | attenuation of binding of α-MSH and AgRP to MC4-R (hMC4-R [1]): attenuate the binding of both α-MSH and AgRP to MC4-R | Ki (hMC4-R [1]; [11]): 37 nM | functional status (pAg, Ag, Antag, Inactive) (hMC4-R [2]; MC4-R, Table 1): Ag | EC50 (hMC4-R [2]; MC4-R, Table 1, read-out: EC50): > 1000 nM | intrinsic activity at MC4-R (hMC4-R [2]): 0.9 | functional status at MC4-R (hMC4-R [2]; cAMP assay): full agonist | EC50 (hMC4-R [2]; [12]): > 100 nM | functional status at MC1-R (MC1-R [3]): no intrinsic activity (intrinsic activity below 0.1 (10%) is classified as inactive or having no intrinsic activity) | functional status at MC5-R (hMC5-R [4]): no intrinsic activity (intrinsic activity below 0.1 (10%) is classified as inactive or having no intrinsic activity) | Inhibition at 1 μM (NDP-α-MSH) MC5-R (hMC5-R [5]; 1 μM compound): 51% | Ki (hMC5-R [5]): 808 nM | Inhibition at 1 μM (AgRP) MC4-R (hMC4-R [6]): 89% | Ki (hMC4-R [6]; [13]): 56 nM | Ki (hMC4-R [6]; read-out: Ki (nM) (AgRP) MC4-R): 56 nM | Inhibition at 1 μM (NDP-α-MSH) MC3-R (hMC3-R [7]; 1 μM compound): 27% | Ki (hMC3-R [7]): 2120 nM | Ki (MC1-R [8]): 162 nM | Inhibition at 1 μM (NDP-α-MSH) MC1-R (MC1-R [8]): 2% | functional status at MC3-R (hMC3-R [9]): no intrinsic activity (intrinsic activity below 0.1 (10%) is classified as inactive or having no intrinsic activity)

C[C@@H]1CN(C(=O)[C@H](N)Cc2ccc3ccccc3c2)[C@@H](CCCNC(=N)N)CN1C(=O)CCCc1c[nH]c2ccccc12 [Example 7]
Ki (hMC4-R [1]; [10]): 90 nM | attenuation of binding of α-MSH and AgRP to MC4-R (hMC4-R [1]): attenuate the binding of both α-MSH and AgRP to MC4-R | Ki (hMC4-R [1]; [11]): 90 nM | functional status (pAg, Ag, Antag, Inactive) (hMC4-R [2]; MC4-R, Table 1): pAg (“pAg” means partial agonist) | EC50 (hMC4-R [2]; MC4-R, Table 1, read-out: EC50): 3800 nM | intrinsic activity at MC4-R (hMC4-R [2]): 0.4 | EC50 (hMC4-R [2]; [12]): > 3000 nM | functional status at MC1-R (MC1-R [3]): no intrinsic activity (intrinsic activity below 0.1 (10%) is classified as inactive or having no intrinsic activity) | functional status at MC5-R (hMC5-R [4]): no intrinsic activity (intrinsic activity below 0.1 (10%) is classified as inactive or having no intrinsic activity) | Ki (hMC5-R [5]): 271 nM | Inhibition at 1 μM (AgRP) MC4-R (hMC4-R [6]): 82% | Ki (hMC4-R [6]; [13]): 133 nM | Ki (hMC4-R [6]; read-out: Ki (nM) (AgRP) MC4-R): 133 nM | Ki (hMC3-R [7]): 657 nM | Ki (MC1-R [8]): 1200 nM | Inhibition at 1 μM (NDP-α-MSH) MC1-R (MC1-R [8]): 0% | functional status at MC3-R (hMC3-R [9]): no intrinsic activity (intrinsic activity below 0.1 (10%) is classified as inactive or having no intrinsic activity)
